Assay results: patent US20030129629A1, “Methods and compositions for the identification, assessment, prevention, and therapy of human cancers” (Millennium Pharmaceuticals, Inc., priority 2000, published 2003)
Values joined by “and” are separate entries in the source; they are usually repeats but may differ in a detail not shown here. Equal entries are not always repeated. Where two headings read alike, the source gives them in different places.

System: 60 cancer cell lines (NCI 60 cancer cell line series)
Experiment: NCI-DTP in vitro cancer screen, sulforhodamine B (SRB) growth inhibition, 48 hour exposure
Format: cell-based, human
Protocol: Cancer Cell Line Preparation. Sixty cancer cell lines were obtained from the National Cancer Institute Developmental Therapeutics Program (NCI-DTP). Procedures for growing cells and testing compounds have been described previously (Scudiero et al., Cancer Res. 1988, 48:4827-4833; Stinson et al., Anticancer Res.; Myers et al., Electrophoresis 1997, 18:647-653). Cells are plated on day 0 at a density individualized for each cell line so that they will generally be sub-confluent at the end of the assay period. On day 1, a compound is added in the format for a duplicate-well, 5-dose, ten-fold interval dose response study.
No-drug, no-cell and no-growth controls are included. On day 3 the cells are processed for staining with sulforhodamine B (SRB), which reflects the amount of cell mass present at the end of a 48 hour exposure to the test agent. From dose response curves based on the SRB data, various parameters can be determined. […] More precisely, the quantity used in the calculation to be described is the potency measure −log{GI50}.
Activity database (A). […] This subset of compounds was selected from the larger 23,000 compound database available from the DTP. The compounds were selected on the basis of their known mechanism of action and chemical structure. The average potency −log{GI50} was extracted from the comma-delimited text files available through the Web at http://www.nci.nih.gov/intra/lmp/jnwbio.html. Subsequently, these −log{GI50} values were inspected manually and classified as indicating either Low, Medium or High sensitivity to each compound.

With `O=C(O)CCCc1ccc(N(CCCl)CCCl)cc1` [Chlorambucil] the “classification of cell line as Low(1), Medium(2), High(3) sensitivity to compound” value (“classification of cell line” for short) was 2 and 3 and 1, the “classification of cell line” value (Breast BT-549 CL5013) was 1 and the “classification of cell line” value (Breast HS-578T CL5006) was 1. The “classification of cell line” value (Breast MCF7(I) CL5001) was 2, the “classification of cell line” value (Breast MCF7/ADRr CL5002) was 2 and the “classification of cell line” value (Breast MDA-MB-231 CL5005) was 1. For the same molecule, the “classification of cell line” value (Breast MDA-MB-435 CL5011) was 1, the “classification of cell line” value (Breast MDA-N CL5012) was 1 and the “classification of cell line” value (Breast T-47D CL5014) was 2. The “classification of cell line” value (Colon COLO-250 CL4010) was 1, the “classification of cell line” value (Colon HCC-2998 CL4002) was 1 and the “classification of cell line” value (Colon HCT-15 CL4015) was 2. The “classification of cell line” value (Colon HCT-116 CL4003) was 1, the “classification of cell line” value (Colon HT29(I) CL4001) was 1 and the “classification of cell line” value (Colon KM12 CL4017) was 1. The “classification of cell line” value (Colon SW-620 CL4009) was 2, the “classification of cell line” value (Leukemia CCRF-CEM(I) CL7003) was 3 and the “classification of cell line” value (Leukemia HL-60(I) CL7008) was 3. The “classification of cell line” value (Leukemia K562(I) CL7005) was 1, the “classification of cell line” value (Leukemia MOLT-4 CL7006) was 3 and the “classification of cell line” value (Leukemia RPMI-8226(I) CL7010) was 2. For the same molecule, the “classification of cell line” value (Leukemia SR CL7019) was 3, the “classification of cell line” value (Melanoma LOX IMVI CL10001) was 2 and the “classification of cell line” value (Melanoma M14 CL10014) was 2. For the same molecule, the “classification of cell line” value (Melanoma MALME-3M CL10002) was 2, the “classification of cell line” value (Melanoma SK-MEL-2 CL10005) was 1 and the “classification of cell line” value (Melanoma SK-MEL-5 CL10007) was 2. For the same molecule, the “classification of cell line” value (Melanoma SK-MEL-28 CL10008) was 1, the “classification of cell line” value (Melanoma UACC-62 CL10020) was 3 and the “classification of cell line” value (Melanoma UACC-257 CL10021) was 2. For the same molecule, the “classification of cell line” value (NSCLC A549/ATCC CL1004) was 2, the “classification of cell line” value (NSCLC EKVX CL1008) was 1 and the “classification of cell line” value (NSCLC HOP-62 CL1026) was 2. For the same molecule, the “classification of cell line” value (NSCLC HOP-92 CL1029) was 2, the “sensitivity classification Low(1)/Medium(2)/High(3)” value (NSCLC NCI-H23(I) CL1001) was 2 and the “classification of cell line” value (NSCLC NCI-H226 CL1013) was 2. For the same molecule, the “sensitivity classification Low(1)/Medium(2)/High(3)” value (NSCLC NCI-H332M CL1017) was 1, the “sensitivity classification Low(1)/Medium(2)/High(3)” value (NSCLC NCI-H460 CL1021) was 3 and the “sensitivity classification Low(1)/Medium(2)/High(3)” value (NSCLC NCI-H522 CL1003) was 2. For the same molecule, the “sensitivity classification Low(1)/Medium(2)/High(3)” value (Ovarian IGROV1 CL6010) was 1, the “sensitivity classification Low(1)/Medium(2)/High(3)” value (Ovarian OVCAR-3 CL6001) was 1 and the “sensitivity classification Low(1)/Medium(2)/High(3)” value (Ovarian OVCAR-4 CL6002) was 1. The “sensitivity classification Low(1)/Medium(2)/High(3)” value (Ovarian OVCAR-5 CL6003) was 1, the “sensitivity classification Low(1)/Medium(2)/High(3)” value (Ovarian OVCAR-8 CL6005) was 2 and the “sensitivity classification Low(1)/Medium(2)/High(3)” value (Ovarian SK-OV-3 CL6011) was 1. The “sensitivity classification Low(1)/Medium(2)/High(3)” value (Prostate DU-145 CL11003) was 2, the “sensitivity classification Low(1)/Medium(2)/High(3)” value (Prostate PC-3(I) CL11001) was 1 and the “sensitivity classification Low(1)/Medium(2)/High(3)” value (Renal 786-0 CL9018) was 2. For the same molecule, the “sensitivity classification Low(1)/Medium(2)/High(3)” value (Renal A498 CL9013) was 1, the “sensitivity classification Low(1)/Medium(2)/High(3)” value (Renal ACHN CL9023) was 3 and the “sensitivity classification Low(1)/Medium(2)/High(3)” value (Renal CAKI-1 CL9015) was 3. For the same molecule, the “sensitivity classification Low(1)/Medium(2)/High(3)” value (Renal RXF-393 CL9016) was 2, the “sensitivity classification Low(1)/Medium(2)/High(3)” value (Renal SN12C CL9008) was 2 and the “sensitivity classification Low(1)/Medium(2)/High(3)” value (Renal TK10 CL9024) was 1. The “sensitivity classification Low(1)/Medium(2)/High(3)” value (Renal UO-31 CL9004) was 2.

`NC(=O)NO` [Hydroxyurea] was tested, and the “classification of cell line” value (Breast BT-549 CL5013) was 1, the “classification of cell line” value (Breast HS-578T CL5006) was 2 and the “classification of cell line” value (Breast MCF7(I) CL5001) was 2. The “classification of cell line” value (Breast MCF7/ADRr CL5002) was 2, the “classification of cell line” value (Breast MDA-MB-231 CL5005) was 1 and the “classification of cell line” value (Breast MDA-MB-435 CL5011) was 1. For the same molecule, the “classification of cell line” value (Breast MDA-N CL5012) was 1, the “classification of cell line” value (Breast T-47D CL5014) was 1 and the “classification of cell line” value (CNS SF-268 CL12014) was 2. The “classification of cell line” value (CNS SF-295 CL12015) was 3, the “classification of cell line” value (CNS SF-539 CL12016) was 3 and the “classification of cell line” value (CNS SNB-19 CL12002) was 1. The “classification of cell line” value (CNS SNB-75(I) CL12005) was 2, the “classification of cell line” value (CNS U251(I) CL12009) was 2 and the “classification of cell line” value (Colon COLO-250 CL4010) was 1. For the same molecule, the “classification of cell line” value (Colon HCC-2998 CL4002) was 2, the “classification of cell line” value (Colon HCT-15 CL4015) was 2 and the “classification of cell line” value (Colon HCT-116 CL4003) was 2. For the same molecule, the “classification of cell line” value (Colon HT29(I) CL4001) was 2, the “classification of cell line” value (Colon KM12 CL4017) was 2 and the “classification of cell line” value (Colon SW-620 CL4009) was 2. For the same molecule, the “classification of cell line” value (Leukemia CCRF-CEM(I) CL7003) was 3, the “classification of cell line” value (Leukemia HL-60(I) CL7008) was 3 and the “classification of cell line” value (Leukemia K562(I) CL7005) was 2. The “classification of cell line” value (Leukemia MOLT-4 CL7006) was 3, the “classification of cell line” value (Leukemia RPMI-8226(I) CL7010) was 3 and the “classification of cell line” value (Leukemia SR CL7019) was 3. For the same molecule, the “classification of cell line” value (Melanoma LOX IMVI CL10001) was 2, the “classification of cell line” value (Melanoma M14 CL10014) was 2 and the “classification of cell line” value (Melanoma MALME-3M CL10002) was 2. The “classification of cell line” value (Melanoma SK-MEL-2 CL10005) was 1, the “classification of cell line” value (Melanoma SK-MEL-5 CL10007) was 2 and the “classification of cell line” value (Melanoma SK-MEL-28 CL10008) was 1. The “classification of cell line” value (Melanoma UACC-62 CL10020) was 3, the “classification of cell line” value (Melanoma UACC-257 CL10021) was 1 and the “classification of cell line” value (NSCLC A549/ATCC CL1004) was 2. For the same molecule, the “classification of cell line” value (NSCLC EKVX CL1008) was 1, the “classification of cell line” value (NSCLC HOP-62 CL1026) was 2 and the “classification of cell line” value (NSCLC HOP-92 CL1029) was 2. For the same molecule, the “sensitivity classification Low(1)/Medium(2)/High(3)” value (NSCLC NCI-H23(I) CL1001) was 2, the “classification of cell line” value (NSCLC NCI-H226 CL1013) was 2 and the “sensitivity classification Low(1)/Medium(2)/High(3)” value (NSCLC NCI-H332M CL1017) was 1. For the same molecule, the “sensitivity classification Low(1)/Medium(2)/High(3)” value (NSCLC NCI-H460 CL1021) was 3, the “sensitivity classification Low(1)/Medium(2)/High(3)” value (NSCLC NCI-H522 CL1003) was 2 and the “sensitivity classification Low(1)/Medium(2)/High(3)” value (Ovarian IGROV1 CL6010) was 2. The “sensitivity classification Low(1)/Medium(2)/High(3)” value (Ovarian OVCAR-3 CL6001) was 2, the “sensitivity classification Low(1)/Medium(2)/High(3)” value (Ovarian OVCAR-4 CL6002) was 1 and the “sensitivity classification Low(1)/Medium(2)/High(3)” value (Ovarian OVCAR-5 CL6003) was 2. The “sensitivity classification Low(1)/Medium(2)/High(3)” value (Ovarian OVCAR-8 CL6005) was 2, the “sensitivity classification Low(1)/Medium(2)/High(3)” value (Ovarian SK-OV-3 CL6011) was 1 and the “sensitivity classification Low(1)/Medium(2)/High(3)” value (Prostate DU-145 CL11003) was 2. For the same molecule, the “sensitivity classification Low(1)/Medium(2)/High(3)” value (Prostate PC-3(I) CL11001) was 2, the “sensitivity classification Low(1)/Medium(2)/High(3)” value (Renal 786-0 CL9018) was 2 and the “sensitivity classification Low(1)/Medium(2)/High(3)” value (Renal A498 CL9013) was 2. For the same molecule, the “sensitivity classification Low(1)/Medium(2)/High(3)” value (Renal ACHN CL9023) was 3, the “sensitivity classification Low(1)/Medium(2)/High(3)” value (Renal CAKI-1 CL9015) was 3 and the “sensitivity classification Low(1)/Medium(2)/High(3)” value (Renal RXF-393 CL9016) was 2. The “sensitivity classification Low(1)/Medium(2)/High(3)” value (Renal SN12C CL9008) was 2, the “sensitivity classification Low(1)/Medium(2)/High(3)” value (Renal TK10 CL9024) was 1 and the “sensitivity classification Low(1)/Medium(2)/High(3)” value (Renal UO-31 CL9004) was 2.
